Test results reported in PMC8236845.
Counter-ions that a name gives are not always drawn.

Biological target: binding of recombinant, trimeric SARS-CoV-2 spike protein to recombinant human ACE2 (Severe acute respiratory syndrome coronavirus 2, UniProt P0DTC2, K986P/R682G/R683S/R685S/V987P)
Assay: biochemical
Design: species or system SARS-CoV-2 / human
Details: for EC50: read-out: EC50 (corrected)

| Molecule | % Inhibition [%] | also measured |
| --- | --- | --- |
| CO[C@H]1C[C@H](O[C@@H]2/C(C)=C/C[C@@H]3C[C@@H](C[C@]4(CC[C@H](C)[C@@H](C5CCCCC5)O4)O3)OC(=O)[C@@H]3C=C(C)/C(=N/O)[C@H]4OC/C(=C\C=C\[C@@H]2C)[C@]43O)O[C@@H](C)[C@@H]1O [Selamectin] | 97 |  |
| CNC(=O)c1cc(Oc2ccc(NC(=O)Nc3ccc(Cl)c(C(F)(F)F)c3)cc2)ccn1 [Sorafenib Tosylate] |  | % Inhibition, Screen: 21% |
| CN1CC(=O)N2[C@H](c3ccc4c(c3)OCO4)c3[nH]c4ccccc4c3C[C@@H]2C1=O [Tadalafil] | 96 |  |
| CO[C@H]1C[C@@H]2CC[C@@H](C)[C@@](O)(O2)C(=O)C(=O)N2CCCC[C@H]2C(=O)O[C@H]([C@H](C)C[C@@H]2CC[C@@H](OC(=O)C(C)(CO)CO)[C@H](OC)C2)CC(=O)[C@H](C)/C=C(\C)[C@@H](O)[C@@H](OC)C(=O)[C@H](C)C[C@H](C)/C=C/C=C/C=C/1C [Temsirolimus (CCI-779, NSC 683864), Temsirolimus] | 96 |  |
| COc1cc([C@@H]2c3cc4c(cc3[C@@H](O[C@@H]3O[C@@H]5CO[C@@H](c6cccs6)O[C@H]5[C@H](O)[C@H]3O)[C@H]3COC(=O)[C@H]23)OCO4)cc(OC)c1O [Teniposide] | 97 |  |
| C=C(NC(=O)C(=C)NC(=O)c1csc(C2=N[C@@H]3c4csc(n4)[C@H]4NC(=O)c5csc(n5)[C@H]([C@](C)(O)[C@@H](C)O)NC(=O)[C@H]5CSC(=N5)/C(=C/C)NC(=O)[C@H]([C@@H](C)O)NC(=O)c5csc(n5)[C@]3(CC2)NC(=O)[C@H](C)NC(=O)C(=C)NC(=O)[C@H](C)NC(=O)[C@H]([C@@H](C)CC)N[C@@H]2C=Cc3c([C@H](C)O)cc(nc3[C@H]2O)C(=O)O[C@@H]4C)n1)C(N)=O [Thiostrepton] | 99 |  |
| CCOC(=O)c1c(N)sc2c1CCN(Cc1ccccc1)C2.Cl [Tinoridine Hydrochloride] | 90 | EC50: 257 µM |
| Cn1cncc1[C@@](N)(c1ccc(Cl)cc1)c1ccc2c(c1)c(-c1cccc(Cl)c1)cc(=O)n2C [Tipifarnib] | 98 |  |
| CC[C@@]1(O)C(=O)OCc2c1cc1n(c2=O)Cc2cc3c(CN(C)C)c(O)ccc3nc2-1 [Topotecan] |  | inhibition of spike-ACE2 binding in the screen: did not inhibit |
| NC1CCN(c2nc3c(cc2F)c(=O)c(C(=O)O)cn3-c2ccc(F)cc2F)C1 (stereo not shown) [Tosufloxacin (P-Toluenesulfonic Acid), Tosufloxacin] | 97 |  |
| Nc1nc(N)c2nc(-c3ccccc3)c(N)nc2n1 [Triamterene] | 91 |  |
| COC[C@H]1C[C@@H](c2nc(-c3ccc4c(c3)COc3cc5c(ccc6nc([C@@H]7CC[C@H](C)N7C(=O)[C@@H](NC(=O)OC)C(C)C)[nH]c65)cc3-4)c[nH]2)N(C(=O)[C@H](NC(=O)OC)c2ccccc2)C1 [Velpatasvir] | 93 |  |
| N#Cc1ccc2[nH]cc(CCCCN3CCN(c4ccc5oc(C(N)=O)cc5c4)CC3)c2c1 [Vilazodone HCl] | 99 |  |
| CO[C@H]1C[C@@H]2CC[C@@H](C)[C@@](O)(O2)C(=O)C(=O)N2CCCC[C@H]2C(=O)O[C@H]([C@H](C)C[C@@H]2CC[C@H](n3cnnn3)[C@H](OC)C2)CC(=O)[C@H](C)/C=C(\C)[C@@H](O)[C@@H](OC)C(=O)[C@H](C)C[C@H](C)/C=C/C=C/C=C/1C [Zotarolimus(ABT-578), Zotarolimus] | 96 |  |
| Avermectin B1 | 98 |  |
| Cefotiam Hexetil Hydrochloride | 99 | EC50: 37.3 µM |
| Ivermectin |  | % inhibition in first-round screen: 89% |
